Measurements as given in ChEMBL document CHEMBL3751755, “Developing steroidal aromatase inhibitors-an effective armament to win the battle against breast cancer” (Eur J Med Chem, 2015).

Biological target: T1, Aromatase (Homo sapiens, UniProt P11511)
T1 sequence (P11511 whole entry): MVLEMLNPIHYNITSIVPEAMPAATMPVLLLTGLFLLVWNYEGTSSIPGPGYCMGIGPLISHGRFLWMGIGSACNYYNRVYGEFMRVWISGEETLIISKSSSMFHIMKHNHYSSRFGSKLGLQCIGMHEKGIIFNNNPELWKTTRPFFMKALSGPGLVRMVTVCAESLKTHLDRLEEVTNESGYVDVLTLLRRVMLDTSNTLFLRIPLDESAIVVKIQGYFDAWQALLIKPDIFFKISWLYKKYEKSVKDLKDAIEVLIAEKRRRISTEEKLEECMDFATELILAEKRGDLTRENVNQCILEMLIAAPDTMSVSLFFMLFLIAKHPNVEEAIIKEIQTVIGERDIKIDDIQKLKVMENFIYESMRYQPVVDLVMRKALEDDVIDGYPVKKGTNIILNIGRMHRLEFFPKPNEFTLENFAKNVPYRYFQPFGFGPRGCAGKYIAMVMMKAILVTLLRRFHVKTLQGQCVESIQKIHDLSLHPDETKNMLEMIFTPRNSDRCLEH

## C[C@]12CCC(=O)C=C1CC[C@@H]1[C@@H]2CC[C@]2(C)C(=O)CC[C@@H]12 [ANDROSTENEDIONE]
  Ki: 35 nM

## CCCCC1=C[C@@H]2[C@H](CC[C@]3(C)C(=O)CC[C@@H]23)[C@@]2(C)CCC(=O)C=C12
  Ki: 17 nM

## C[C@]12CC[C@H]3[C@@H](CC[C@]45O[C@H]4C(=O)CC[C@]35C)[C@@H]1CCC2=O
  Ki: 5000 nM

## C[C@]12CC[C@H]3[C@@H](C(=O)[C@H]4O[C@]45C(=O)CCC[C@]35C)[C@@H]1CCC2=O
  Ki: 5000 nM

## CC1(C)C[C@@]2(C)C(=CC1=O)[C@H](Br)C[C@@H]1[C@@H]2CC[C@]2(C)C(=O)CC[C@@H]12
  Ki: 10 nM

## C[C@]12C=CC(=O)C=C1C(c1ccc(OS(N)(=O)=O)cc1)=C[C@@H]1[C@@H]2CC[C@]2(C)C(=O)CC[C@@H]12
  Ki: 56 nM

## CCCCCC[C@H]1C[C@@H]2[C@H](CC[C@]3(C)C(=O)CC[C@@H]23)[C@@]2(C)CCC(=O)C=C12
  Ki: 9.3 nM

## C[C@]12CC[C@@H]3c4cc(Cl)c(O)cc4CC[C@H]3[C@@H]1CC[C@@H]2O
  Ki: 100 nM

## C[C@]12CCC(=O)C=C1C(c1ccc(O)cc1)=C[C@@H]1[C@@H]2CC[C@]2(C)C(=O)CC[C@@H]12
  Ki: 23 nM

## C[C@]12CC[C@@H]3c4ccc(O)cc4[C@H](CCCc4ccccc4)C[C@H]3[C@@H]1CC[C@@H]2O
  Ki: 100 nM

## CCCCC1=C[C@@H]2[C@H](CC[C@]3(C)C(=O)CC[C@@H]23)[C@@]2(C)C=CC(=O)C=C12
  Ki: 2.5 nM

## C[C@]12CCC(=O)C=C1C(CCc1ccccc1)=C[C@@H]1[C@@H]2CC[C@]2(C)C(=O)CC[C@@H]12
  Ki: 10 nM

## C[C@]12CC[C@H]3[C@@H](CC=C4CCCC[C@@]43C)[C@@H]1CC[C@@H]2O
  Ki: 58 nM

## CCCCCC1=C[C@@H]2[C@H](CC[C@]3(C)C(=O)CC[C@@H]23)[C@@]2(C)C=CC(=O)C=C12
  Ki: 2.5 nM

## CO[C@H]1C[C@@H]2[C@H](CC[C@]3(C)C(=O)CC[C@@H]23)[C@@]2(C)CCCC=C12
  Ki: 12 nM

## CCCCC[C@H]1C[C@@H]2[C@H](CC[C@]3(C)C(=O)CC[C@@H]23)[C@@]2(C)CCC(=O)C=C12
  Ki: 9.3 nM

## C[C@H]1C[C@@H]2[C@H](CC[C@]3(C)C(=O)CC[C@@H]23)[C@@]2(C)CCCC=C12
  Ki: 3.1 nM

## C[C@]12CCCC(=O)C1=CC[C@@H]1[C@@H]2CC[C@]2(C)C(=O)CC[C@@H]12
  Ki: 120 nM

## C[C@]12CC[C@@H]3c4cc(F)c(O)cc4CC[C@H]3[C@@H]1CC[C@@H]2O
  Ki: 100 nM

## C[C@]12CC[C@@H]3c4cc(NC(=O)c5ccncc5)c(O)cc4CC[C@H]3[C@@H]1CCC2=O
  Ki: 2100 nM

## C[C@]12CC[C@@H]3c4ccc(O)cc4[C@@H](Cc4ccccc4)C[C@H]3[C@@H]1CCC2=O
  Ki: 100 nM

## C[C@]12C=CC(=O)C=C1C=C[C@@H]1[C@@H]2CC[C@]2(C)C(=O)CC[C@@H]12
  Ki: 2.5 nM

## C[C@]12CC[C@@H]3c4ccc(O)cc4[C@H](CCCc4ccccc4)C[C@H]3[C@@H]1CCC2=O
  Ki: 100 nM

## CC1(C)C[C@@]2(C)C(=CC1=O)[C@@H](Br)C[C@@H]1[C@@H]2CC[C@]2(C)C(=O)CC[C@@H]12
  Ki: 14 nM

## Cc1cc2c(cc1O)CC[C@@H]1[C@@H]2CC[C@]2(C)[C@@H](O)CC[C@@H]12
  Ki: 100 nM

## CCCCCCCC1=C[C@@H]2[C@H](CC[C@]3(C)C(=O)CC[C@@H]23)[C@@]2(C)CCC(=O)C=C12
  Ki: 17 nM

## C[C@]12CCC(=O)C=C1[C@H](CCCCc1ccccc1)C[C@@H]1[C@@H]2CC[C@]2(C)C(=O)CC[C@@H]12
  Ki: 16 nM

## CCC1=C[C@@H]2[C@H](CC[C@]3(C)C(=O)CC[C@@H]23)[C@@]2(C)CCC(=O)C=C12
  Ki: 17 nM

## C[C@]12CCC(=O)C=C1[C@@H](c1ccc(O)cc1)C[C@@H]1[C@@H]2CC[C@]2(C)C(=O)CC[C@@H]12
  Ki: 27 nM

## C[C@@H]1C[C@@H]2[C@H](CC[C@]3(C)C(=O)CC[C@@H]23)[C@@]2(C)CCCC=C12
  Ki: 5.3 nM

## C[C@]12CC[C@@H]3c4ccc(O)cc4[C@H](Cc4ccccc4)C[C@H]3[C@@H]1CC[C@@H]2O
  Ki: 100 nM

## CC(=O)O[C@@H]1C[C@@H]2[C@H](CC[C@]3(C)C(=O)CC[C@@H]23)[C@@]2(C)CCCC=C12
  Ki: 12 nM

## CCCCCCC1=C[C@@H]2[C@H](CC[C@]3(C)C(=O)CC[C@@H]23)[C@@]2(C)C=CC(=O)C=C12
  Ki: 2.5 nM

## C[C@]12CC[C@H]3[C@@H](C(=O)[C@H]4O[C@]45C(=O)CCC[C@]35C=O)[C@@H]1CCC2=O
  Ki: 5000 nM

## C[C@]12CC[C@@H]3c4cc(Br)c(O)cc4CC[C@H]3[C@@H]1CC[C@@H]2O
  Ki: 100 nM

## C[C@]12CCC(=O)C=C1C(c1ccc(OS(N)(=O)=O)cc1)=C[C@@H]1[C@@H]2CC[C@]2(C)C(=O)CC[C@@H]12
  Ki: 30 nM

## C[C@]12CCCC(OC(=O)c3ccccc3)=C1CC[C@@H]1[C@@H]2CC[C@]2(C)C(=O)CC[C@@H]12
  Ki: 70 nM

## C[C@]12CCC(=O)C=C1[C@@H](OCc1ccccc1)C[C@@H]1[C@@H]2CC[C@]2(C)C(=O)CC[C@@H]12
  Ki: 7 nM

## C[C@]12CC[C@@H]3c4ccc(O)cc4[C@H](Cc4ccccc4)C[C@H]3[C@@H]1CCC2=O
  Ki: 100 nM

## C[C@]12CC[C@@H]3c4ccc(O)cc4[C@@H](CCCc4ccccc4)C[C@H]3[C@@H]1CC[C@@H]2O
  Ki: 100 nM

## C[C@]12CC[C@@H]3c4cc(Cl)c(O)cc4CC[C@H]3[C@@H]1CCC2=O
  Ki: 100 nM

## CCC1=C[C@@H]2[C@H](CC[C@]3(C)C(=O)CC[C@@H]23)[C@@]2(C)C=CC(=O)C=C12
  Ki: 2.5 nM

## CCCC1=C[C@@H]2[C@H](CC[C@]3(C)C(=O)CC[C@@H]23)[C@@]2(C)C=CC(=O)C=C12
  Ki: 2.5 nM

## CCCCCCCC[C@H]1C[C@@H]2[C@H](CC[C@]3(C)C(=O)CC[C@@H]23)[C@@]2(C)CCC(=O)C=C12
  Ki: 9.3 nM

## CCCCC[C@@H]1C[C@@H]2[C@H](CC[C@]3(C)C(=O)CC[C@@H]23)[C@@]2(C)CCC(=O)C=C12
  Ki: 2.8 nM

## CO[C@@H]1C[C@@H]2[C@H](CC[C@]3(C)C(=O)CC[C@@H]23)[C@@]2(C)CCCC=C12
  Ki: 12 nM

## CC(=O)OC1=C2CC[C@@H]3[C@H](CC[C@]4(C)C(=O)CC[C@@H]34)[C@@]2(C)CCC1
  Ki: 60 nM

## CCCCCCCC[C@@H]1C[C@@H]2[C@H](CC[C@]3(C)C(=O)CC[C@@H]23)[C@@]2(C)CCC(=O)C=C12
  Ki: 2.8 nM

## C[C@]12CC[C@H]3[C@@H](CC(=O)[C@]45O[C@H]4C(=O)CC[C@]35C=O)[C@@H]1CCC2=O
  Ki: 5000 nM

## CCCCCCC1=C[C@@H]2[C@H](CC[C@]3(C)C(=O)CC[C@@H]23)[C@@]2(C)CCC(=O)C=C12
  Ki: 17 nM

## COC1=C[C@@]2(C)C(=CC1=O)CC[C@@H]1[C@@H]2CC[C@]2(C)C(=O)CC[C@@H]12
  Ki: 95 nM

## CC(=O)O[C@H]1C[C@@H]2[C@H](CC[C@]3(C)C(=O)CC[C@@H]23)[C@@]2(C)CCCC=C12
  Ki: 12 nM

## C[C@]12CC[C@@H]3c4cc(Br)c(O)cc4CC[C@H]3[C@@H]1CCC2=O
  Ki: 100 nM

## C[C@H]1C[C@@H]2[C@H](CC[C@]3(C)[C@@H](O)CC[C@@H]23)c2ccc(O)cc21
  Ki: 100 nM

## C[C@]12CC[C@H]3[C@@H](CC[C@]45O[C@H]4C(=O)CC[C@]35C=O)[C@@H]1CCC2=O
  Ki: 5000 nM

## CCCCCCC1=C[C@@]2(C)C(=C(O)C1=O)CC[C@@H]1[C@@H]2CC[C@]2(C)C(=O)CC[C@@H]12
  Ki: 31 nM

## C[C@]12C=CC(=O)C=C1C(c1ccc(O)cc1)=C[C@@H]1[C@@H]2CC[C@]2(C)C(=O)CC[C@@H]12
  Ki: 75 nM

## C[C@]12CC[C@H]3[C@@H](CC[C@]45O[C@H]4C(=O)CC[C@]35CO)[C@@H]1CCC2=O
  Ki: 5000 nM

## CC[C@H]1C[C@@H]2[C@H](CC[C@]3(C)C(=O)CC[C@@H]23)[C@@]2(C)CCCC=C12
  Ki: 12 nM

## C[C@]12CC[C@@H]3c4ccc(O)cc4CC[C@H]3[C@@H]1CCC2=O [ESTRONE]
  Ki: 2500 nM

## CCCC1=C[C@@H]2[C@H](CC[C@]3(C)C(=O)CC[C@@H]23)[C@@]2(C)CCC(=O)C=C12
  Ki: 17 nM

## C[C@]12CC[C@@H]3c4ccc(O)cc4[C@@H](CCCc4ccccc4)C[C@H]3[C@@H]1CCC2=O
  Ki: 100 nM

## C[C@]12CC[C@@H]3c4cc(F)c(O)cc4CC[C@H]3[C@@H]1CCC2=O
  Ki: 100 nM

## C[C@]12CCC=CC1=CC[C@@H]1[C@@H]2CC[C@]2(C)C(=O)CC[C@@H]12
  Ki: 58 nM

## CCCCCC1=C[C@@H]2[C@H](CC[C@]3(C)C(=O)CC[C@@H]23)[C@@]2(C)CCC(=O)C=C12
  Ki: 17 nM

## C[C@]12CCC(=O)C=C1C(Cc1ccccc1)=C[C@@H]1[C@@H]2CC[C@]2(C)C(=O)CC[C@@H]12
  Ki: 9 nM

## C[C@]12CC[C@@H]3c4ccc(O)c(NC(=O)c5ccncc5)c4CC[C@H]3[C@@H]1CCC2=O
  Ki: 1530 nM

## C[C@@H]1C[C@@H]2[C@H](CC[C@]3(C)[C@@H](O)CC[C@@H]23)c2ccc(O)cc21
  Ki: 100 nM

## CCCCCCCC1=C[C@@H]2[C@H](CC[C@]3(C)C(=O)CC[C@@H]23)[C@@]2(C)C=CC(=O)C=C12
  Ki: 2.5 nM

## C[C@]12CC[C@H]3[C@@H](CC=C4C=CCC[C@@]43C)[C@@H]1CC[C@@H]2O
  Ki: 58 nM

## C[C@]12CC[C@H]3[C@@H](CC(=O)[C@]45O[C@H]4C(=O)CC[C@]35C)[C@@H]1CCC2=O
  Ki: 5000 nM
